From patent US9839618B2, “Compositions and methods relating to proliferative diseases” (The Penn State Research Foundation, priority 2010, dated 2017)

Columns and labels:
[1] = system: melanoma cell lines (UACC 903, 1205Lu); assay: MTS assay, melanoma cell lines (cell line not given); type: cell-based, human; conditions: UACC 903 and 1205 Lu
Description: The mechanistic basis of leelamine's activity to inhibit melanoma cell growth is determined by examining the effect of leelamine on 1) cell viability using the MTS assay; 2) proliferation using a BrdU incorporation assay; 3) apoptosis using an assay for caspase-3/7 activity; and 4) cell cycle analysis. The MTS assay as described in Sharma, A. et al., Clin Cancer Res, 2009, 15:1674-85; and Madhunapantula, S. V. et al., Mol Cancer Ther, 2008, 7:1297-308 is used to assay cell viability. Rates of proliferation and apoptosis are measured by seeding 5×10^3 cells in 96-well plates, followed by treatment with 0.62 to 10 μmol/L of leelamine for 24 hours. Proliferating and apoptotic cells are quantified using a colorimetric cell proliferation ELISA BrdU kit (Roche diagnostics, Indianapolis, Ind.) or Apo-ONE Homogenous caspase-3/7 assay kit (Promega, Madison, Wis.), respectively, as described in Sharma, A. et al., Clin Cancer Res, 2009, 15:1674-85; and Madhunapantula, S. V. et al., Mol Cancer Ther, 2008, 7:1297-308.
Dehydroabietylamine, its N-substituted derivatives and the corresponding dihydroabietylamine and its N-substituted derivatives are tested for their capability to inhibit cell growth of cancer cell lines, including melanoma (UACC 903, 1205Lu), breast (MCF-7), fibrosarcoma (HT-1080), colon (Caco-2), and prostate (PC-3) cancer cell lines. Viability and IC50 of normal human fibroblasts and cell lines from melanoma and other malignancies following treatment with all the agents are measured using the MTS assay (Promega, Madison, Wis.). Human fibroblast FF2441 cells, metastatic melanoma cell lines 1205 Lu and UACC 903 as well as cancer cell lines representing sarcoma (HT-1080), prostate (PC-3, LNCaP), breast (MCF-7) and lung (A-549) are maintained in DMEM (Invitrogen, Carlsbad, Calif.) supplemented with 10% FBS (Hyclone, Logan, Utah) in a 5% CO2 atmosphere, humidified 37° C. incubator. 5×10^3 cells per well in 100 μL of media are plated and grown in a 96-well plate for 48 to 72 h and treated with either DMSO vehicle control or 0.62 to 40 μmol/L for 24, 48 or 72 h. IC50 values for each compound in […] for respective cell lines are measured from three independent experiments using GraphPad Prism version 4.01 (GraphPad Software, La Jolla, Calif.). FIG. 52 is a graph showing IC50 values for leelamine and compounds 4a, 4b and 5a in treated fibroblasts (FF2441) compared to melanoma cells. Selectivity ratio here is defined as ratio of activity against fibroblasts compared to activity against melanoma cells. Leelamine is relatively selective with a ratio of >6 and >4 for UACC903 and 1205Lu melanoma cells. The selectivity ratio of compound 4a is ˜4 and ˜3 for UACC903 and 1205Lu and for compound 4b is ˜4 for both cell lines. The selectivity ratio of compound 5a is ˜4 for UACC903 and >2 for 1205Lu cells.

[2] = system: 1205 Lu human melanoma cell tumors; assay: Melanoma xenograft tumor development, 1205 Lu; type: in vivo, mice; conditions: intraperitoneally 2.5-7.5 mg/kg daily for 3-4 weeks, compared to DMSO vehicle
Description: The efficacy of leelamine for inhibiting melanoma tumor development is evaluated on preexisting tumors formed following subcutaneous injection of cancer cells into nude mice. Tumor kinetics are measured by subcutaneous injection of 1.0×10^6 UACC 903 or 1205 Lu cells in 0.2 mL of DMEM supplemented with 10% FBS subcutaneously injected above both left and right rib cages of 3- to 4-wk-old female athymic nude-Foxn1^nu mice (Harlan Laboratories, Indianapolis, Ind.). Six days later, when a fully vascularized tumor (50-75 mm^3) has formed, mice are randomly divided into DMSO vehicle control and experimental groups (5 mice/group; 2 tumors/mouse) and treated intraperitoneally with 2.5-7.5 mg/kg body weight leelamine daily for 3-4 weeks. Body weight (grams) and dimensions of the developing tumors (mm^3) are measured at the time of drug treatment as described in Sharma, A. et al., Clin Cancer Res, 2009, 15:1674-85; and Madhunapantula, S. V. et al., Mol Cancer Ther, 2008, 7:1297-308.
Tumor kinetics are measured by subcutaneous injection of 1.0×10^6 UACC 903 or 1205 Lu cells in 0.2 mL of DMEM supplemented with 10% FBS subcutaneously injected above both left and right rib cages of 3- to 4-wk-old female athymic nude-Foxn1^nu mice (Harlan Laboratories, Indianapolis, Ind.). […] Body weight (grams) and dimensions of the developing tumors (mm^3) are measured at the time of drug treatment.

[3] = Toxicity assessment of leelamine; type: in vivo, Swiss Webster mice
Description: To assess toxicity, Swiss Webster (n=5) mice are intraperitoneally injected with 5 or 10 mg/kg body weight leelamine or with vehicle control (DMSO) every day for 4 weeks. Animals are weighed daily to ascertain the toxicity leading to changes in body weight. Blood is collected by cardiac puncture at the end of treatment and analyzed for the levels of ALP (alkaline phosphatase), ALT (alanine aminotransferase), AST (aspartate aminotransferase), CK (creatine kinase), CREA (creatinine) and GLU (glucose), parameters indicative of organ related toxicity, following systemic administration of 10-mg/Kg-body weight of leelamine, shown in FIG. 11. […] Vital organs including liver, spleen, kidney, intestine, lung and heart from control and experimental animals are collected at the end of the test period, formalin fixed, paraffin-embedded, hematoxylin/eosin stained and analyzed microscopically for changes in cellular morphology or tissue architecture as described in Sharma, A. et al., Clin Cancer Res, 2009, 15:1674-85; and Madhunapantula, S. V. et al., Mol Cancer Ther, 2008, 7:1297-308.

[4] = system: GFP expressing UACC 903 melanoma cells in skin reconstructs; assay: Topical treatment of melanoma tumors in skin reconstructs; type: cell-based, human; conditions: topical 2.5, 5 and 10 uM for 8 days
Description: In this example, the effect of leelamine on melanoma tumors developing in skin reconstructs is tested by topical application. Skin reconstructs are generated by mixing GFP expressing UACC 903 melanoma cells with human normal fibroblasts (FF2441) and keratinocytes (HFK) followed by growing in a 37° C. incubator for 7 days. Beginning from day 8, completely developed skins containing melanoma tumors are treated with increasing concentrations of Leelamine (2.5, 5 and 10 uM in 200 uL PBS) or PBS vehicle alone for an additional 8 more days. The sizes of developing tumors, in terms of area occupied by GFP are measured. […] Also shown in FIG. 22 are images of control and treated cells.

[5] = i.p. 10 mg/kg daily for 4 weeks

Structure (SMILES) | anti-cancer activity / viability of melanoma cell lines, in words [1] | reduction of tumor volume, 1205 Lu [2] | blood ALP, ALT, AST, CK, CREA, GLU [3, 5] | histology of liver, spleen, kidney, intestine, lung, heart [3, 5] | body weights ([3]; i.p. 5 or 10 mg/kg every day for 4 weeks) | melanoma tumor growth in skin reconstructs (GFP area) [4]
CC(C)c1ccc2c(c1)CCC1[C@](C)(CN)CCC[C@]21C (stereo partly drawn) [Leelamine, [(1R,4aS)-1,4a-dimethyl-7-(propan-2-yl)-1,2,3,4,4a,9,10,10a-octahydrophenanthren-1-yl]methanamine] | effectively inhibits the viability | 57% | No significant differences | did not significantly alter cell morphology or overall structure | no significant differences | inhibits melanoma tumor growth
CC(C)C1=CC2=CCC3[C@](C)(CCC[C@@]3(C)C(=O)O)C2CC1 (stereo partly drawn) [Abietic acid, (1R,4aR)-1,4a-dimethyl-7-(propan-2-yl)-1,2,3,4,4a,4b,5,6,10,10a-decahydrophenanthrene-1-carboxylic acid, reference compound] | no anti-cancer activity | – | – | – | – | –
